Patent US7585851B2, “3′-prodrugs of 2′-deoxy-β-L-nucleosides” (priority 2000, dated 2009)
“Also recorded” adds a separate entry of the source. Like-named read-outs stand apart in the source and are kept apart here.

Legend:
cultured CHO cells = experiment: Chromosomal aberration assay; assay type: cell-based, Chinese hamster; settings: with and without metabolic activation, 5000 μg/mL
[1] = test system: Escherichia coli strain WP2uvrA; experiment: Plate incorporation mutation assay, E. coli; settings: with and without rat liver S-9; up to 5000 mg/plate, 5000 μg/plate
Method: (§1) L-dC was tested for its potential to cause mutation at the histidine operon of Salmonella typhimurium strains TA98, TA100, TA1535, and TA1537 and at the tryptophan opeton of Escherichia coli strain WP2uvrA. L-dC at concentrations of […] plus positive and negative controls were tested. […] After incubation for approximately 68 hours, L-dC and controls were evaluated for the number of revertants per plate and integrity of the background microcolony lawn.

Influenza A/H3N2 = experiment: Antiviral panel: Influenza A/H3N2 (MDCK); assay type: cell-based
[2] = assay type: in vivo, cynomologus monkey
Method: The pharmacokinetics of L-dC following IV and oral administration of L-dC to cynomologus monkeys was determined. […] Following a six week washout period, the same three monkeys received an identical oral dose of L-dC. Blood samples for pharmacokinetic analysis were collected pre-dose and at 0.25, 0.5, 1, 2, 3, 6, 8 and 24 hours after dosing. Urine samples for pharmacokinetic analyses were collected via pan catch pre-dose and over the following intervals post-dose: 0-2, […], 4-8, and 8-12 hours, and then over 12-hour intervals thereafter through 336 hours post-dose. The drug was detected and the concentration determined using a reverse-phase high-performance liquid chromatography technique.

HCMV = experiment: Antiviral panel: HCMV (HFF); assay type: cell-based
[3] = test system: Daudi, Burkitt's B-cell lymphoma
[4] = test system: Salmonella typhimurium strains TA98, TA100, TA1535, and TA1537; experiment: Plate incorporation mutation assay, S. typhimurium; settings: with and without rat liver S-9; up to 5000 mg/plate, 5000 μg/plate
Method: as §1

[5] = rat
Method: The drug was detected and the concentration determined in plasma and urine using a reverse-phase HPLC technique. The data were analyzed by a non-modeling mathematical method and the AUCs derived by the linear trapezoidal rule.

[6] = L-dC 10 mg/kg IV, cynomologus monkey
[7] = L-dC 10 mg/kg oral, cynomologus monkey

## Nc1ccn([C@@H]2C[C@@H](O)[C@H](CO)O2)c(=O)n1 [L-dC, 2′-deoxy-β-L-cytidine]
Cultured CHO cells
  chromosomal aberrations: no evidence of chromosomal aberrations
[1]
  mutagenicity: no evidence of mutagenicity; also recorded: not mutagenic
Influenza A/H3N2
  EC50: > 100 µM
[2]; IV
  renal clearance as share of total L-dC clearance: 87%
[2]; IV L-dC, analyte = label
  share of the dose recovered in the urine, by analyte: 94%
[2]; IV, within 2 hours
  administered dose recovered in urine: 71%
[2]; [6]
  CL: 8.83 mL/min/kg
  CLR: 7.67 mL/min/kg
  Cmax: 95.7 µM
  Tmax: 0 h
  Vd: 1.22 L/kg
  t1/2: 1.59 h
[2]; L-dC 10 mg/kg oral vs IV, cynomologus monkey
  oral bioavailability F: 16.4%
[2]; [7]
  Cmax: 3.38 µM
  Tmax: 2.33 h
  terminal t1/2: 2.95 h
[2]; oral L-dC, analyte = label
  share of drug excreted / recovered dose in urine, by analyte: ~69%
[2]; after 72 hours
  administered oral dose recovered in urine: 15.5%±8%
[2]; within 12 hours
  administered oral dose recovered in urine: Approximately 8.5%
HCMV
  EC50: >100 µg/mL
[3]
  CC50: >50 µg/mL
[4]
  mutagenicity: no evidence of mutagenicity; also recorded: not mutagenic
[5]; L-dC 10 mg/kg IV
  AUC0.25→8 (table head AUC0-25-28): 30100 µM·h
  CL: 24 mL/min/kg
  Tmax: 0 h
  Vd: 2.53 L/kg
  t1/2: 1.21 h
[5]; L-dC 10 mg/kg oral vs IV
  oral bioavailability F: 15.4%
[5]; L-dC 10 mg/kg oral
  AUC0.25→8 (table head AUC0-25-28): 4770 µM·h
  Tmax: 1.0 h
  t1/2: 2.52 h
